# Test results as given in patent US20160296511A1, “LAQUINIMOD FOR REDUCING THALAMIC DAMAGE IN MULTIPLE SCLEROSIS” (Teva Pharmaceutical Industries, Ltd., priority 2012, published 2016).
# What was measured:
# subjects with RRMS [1] = assay: ALLEGRO sub-study: MT MRI, magnetization transfer ratio (MTR) of NABT, WM, GM and T2 lesions; type: in vivo, human; settings: for Average MTR of T2 lesions, LS mean (SE) change / GM MTR, LS mean (SE) change / NABT MTR, LS mean (SE) change / WM MTR, LS mean (SE) change: 0.6 mg; for Average MTR of T2 lesions, treatment difference (95% CI) / GM MTR, treatment difference (95% CI) / NABT MTR, treatment difference (95% CI) / WM MTR, treatment difference (95% CI): laquinimod 0.6 mg vs placebo
# Description: • 1. Frequent MRI (selected countries and sites only): The cumulative number of T1-Gd enhancing lesions taken from scans obtained at months 0, 3, 6, 12, and 24, and in case the study is be extended, 30. Additional MRIs for the ancillary study are performed at months 3 and 6. • 2. Magnetization Transfer (MT) (selected countries and sites only): the change from baseline to month 12 and 24/30 months in magnetization transfer MRI. MT was assessed at months 0 (baseline), 12 and 24 (termination/early discontinuation). In case of the 6 months extended study, the last MT was performed at month 30 (termination/early discontinuation of the extended study) instead of month 24. • 3. Proton MR Spectroscopy (^1H-MRS) (selected countries and sites only): Change from baseline to 24/30 in ^1H-MRS metabolites. ^1H-MRS was assessed at months 0 (baseline), and 24 (termination/early discontinuation). In case of the 6 months extended study, the last ^1H-MRS was performed at month 30 (termination/early discontinuation of the extended study) instead of month 24. • 4. Pharmacogenetic (PGx) assessment: Blood samples for PGx parameters were collected from all subjects at screening. • 5. Brain atrophy, as defined by the percentage of change from one scan to the subsequent scan in brain volume, in addition to the measurements done in the main study (Frequent MRI Cohort). • 6. Whole blood and serum samples (selected countries and sites only) were collected for evaluation of the immunological response to treatment with laquinimod and further investigation of the potential mechanism of action. Whole blood samples were collected at months: 0, 1, 3, 6, 12 and 24. Serum samples were collected at month: 0, 1, 6, 12 and 24 (even if the study is extended to month 30). • 7. Relationship between PGx and response to laquinimod in terms of clinical, MRI and safety parameters. Patients with valid baseline and month 12, and/or month 24 MT MRI assessments were included in the analysis. Least square (LS) mean changes from baseline MTR in NABT, WM, GM and T2-lesions at months 12 and 24, and between months 12 an 24, were evaluated using a MMRM analysis.
# RRMS patients = settings: cited from earlier work
# subjects with RRMS [2] = assay: ALLEGRO sub-study: evolution of GdE and new T2 lesions into permanent black holes (PBH), frequent MRI group; type: in vivo, human; settings: for Number of PBH from GdE lesions, adjusted mean (SE) / PBH from GdE lesions, RR (risk ratio) laquinimod vs placebo / Number of PBH from active lesions, adjusted mean (SE) / Number of PBH from new T2 lesions, mean (SE) / PBH from active lesions, RR (risk ratio) laquinimod vs placebo / PBH from new T2 lesions, RR (risk ratio) laquinimod vs placebo: 0.6 mg
# From the text: A subset of patients in ALLEGRO comprised a “frequent MRI” group for PBH analysis; these patients had MRIs taken at months 3, 6, 12 and 24. Patients in the frequent MRI group with active lesions at baseline or during the study were included in the PBH analysis. A negative binomial regression analysis was used to estimate the mean number of PBH at months 12 and 24 that evolved from GdE and new T2 lesions detected at various time points in the study in the “frequent MRI” subgroup.
# [3] = PBH at Month 12 from lesions at Baseline
# [4] = PBH at Month 12 from lesions at Month 3
# [5] = PBH at Month 12 from lesions at Months 3 and 6
# [6] = PBH at Month 24 from All lesions
# [7] = PBH at Month 24 from lesions at Baseline
# [8] = PBH at Month 24 from lesions at Month 3
# [9] = PBH at Month 24 from lesions at Months 3, 6, and 12
smiles,measurement,setting,value
CCN(C(=O)c1c(O)c2c(Cl)cccc2n(C)c1=O)c1ccccc1 [Laquinimod],"Average MTR of T2 lesions, LS mean (SE) change",subjects with RRMS [1]; Baseline to Month 12,0.39 (0.25)
same,"GM MTR, LS mean (SE) change",subjects with RRMS [1]; Baseline to Month 12,0.30 (0.13)
same,"NABT MTR, LS mean (SE) change",subjects with RRMS [1]; Baseline to Month 12,0.31 (0.12)
same,"WM MTR, LS mean (SE) change",subjects with RRMS [1]; Baseline to Month 12,0.32 (0.13)
same,"Average MTR of T2 lesions, treatment difference (95% CI)",subjects with RRMS [1]; Baseline to Month 12,"0.38 (−0.26, 1.01) p = 0.239"
same,"GM MTR, treatment difference (95% CI)",subjects with RRMS [1]; Baseline to Month 12,"0.41 (0.08, 0.74) p = 0.014"
same,"NABT MTR, treatment difference (95% CI)",subjects with RRMS [1]; Baseline to Month 12,"0.40 (0.09, 0.71) p = 0.013"
same,"WM MTR, treatment difference (95% CI)",subjects with RRMS [1]; Baseline to Month 12,"0.40 (0.09, 0.72) p = 0.013"
same,"Average MTR of T2 lesions, LS mean (SE) change",subjects with RRMS [1]; Baseline to Month 24,0.46 (0.29)
same,"GM MTR, LS mean (SE) change",subjects with RRMS [1]; Baseline to Month 24,0.14 (0.16)
same,"NABT MTR, LS mean (SE) change",subjects with RRMS [1]; Baseline to Month 24,0.23 (0.15)
same,"WM MTR, LS mean (SE) change",subjects with RRMS [1]; Baseline to Month 24,0.27 (0.16)
same,"Average MTR of T2 lesions, treatment difference (95% CI)",subjects with RRMS [1]; Baseline to Month 24,"0.53 (−0.23, 1.28) p = 0.168"
same,"GM MTR, treatment difference (95% CI)",subjects with RRMS [1]; Baseline to Month 24,"0.47 (0.04, 0.90) p = 0.034"
same,"NABT MTR, treatment difference (95% CI)",subjects with RRMS [1]; Baseline to Month 24,"0.50 (0.10, 0.89) p = 0.015"
same,"WM MTR, treatment difference (95% CI)",subjects with RRMS [1]; Baseline to Month 24,"0.53 (0.13, 0.94) p = 0.011"
same,"Average MTR of T2 lesions, LS mean (SE) change",subjects with RRMS [1]; Month 12 to Month 24,0.07 (0.24)
same,"GM MTR, LS mean (SE) change",subjects with RRMS [1]; Month 12 to Month 24,−0.16 (0.15)
same,"NABT MTR, LS mean (SE) change",subjects with RRMS [1]; Month 12 to Month 24,−0.08 (0.14)
same,"WM MTR, LS mean (SE) change",subjects with RRMS [1]; Month 12 to Month 24,−0.05 (0.13)
same,"Average MTR of T2 lesions, treatment difference (95% CI)",subjects with RRMS [1]; Month 12 to Month 24,"0.15 (−0.51, 0.81) p = 0.651"
same,"GM MTR, treatment difference (95% CI)",subjects with RRMS [1]; Month 12 to Month 24,"0.06 (−0.37, 0.49) p = 0.787"
same,"NABT MTR, treatment difference (95% CI)",subjects with RRMS [1]; Month 12 to Month 24,"0.10 (−0.31, 0.50) p = 0.642"
same,"WM MTR, treatment difference (95% CI)",subjects with RRMS [1]; Month 12 to Month 24,"0.13 (−0.24, 0.51) p = 0.486"
same,Disability and brain atrophy progression,"RRMS patients; 0.6 mg/day, RRMS patients",slowed disability and brain atrophy progression
same,Rate of whole brain atrophy compared with placebo,RRMS patients; ALLEGRO and BRAVO,decreased the rate of whole brain atrophy
same,Safety and tolerability profile,RRMS patients; two phase III trials,favorable safety and tolerability profile
same,"Number of PBH from GdE lesions, adjusted mean (SE)",subjects with RRMS [2]; [3],0.5 (0.16) [26]
same,"PBH from GdE lesions, RR (risk ratio) laquinimod vs placebo",subjects with RRMS [2]; [3],0.53
same,"Number of PBH from GdE lesions, adjusted mean (SE)",subjects with RRMS [2]; [4],0.6 (0.25) [14]
same,"Number of PBH from active lesions, adjusted mean (SE)",subjects with RRMS [2]; [4],0.41 (0.14) [29]
same,"Number of PBH from new T2 lesions, mean (SE)",subjects with RRMS [2]; [4],0.40 (0.15) [28]
same,"PBH from GdE lesions, RR (risk ratio) laquinimod vs placebo",subjects with RRMS [2]; [4],0.58
same,"PBH from active lesions, RR (risk ratio) laquinimod vs placebo",subjects with RRMS [2]; [4],0.44
same,"PBH from new T2 lesions, RR (risk ratio) laquinimod vs placebo",subjects with RRMS [2]; [4],0.52
same,"Number of PBH from GdE lesions, adjusted mean (SE)",subjects with RRMS [2]; [5],0.6 (0.18) [25]
same,"Number of PBH from active lesions, adjusted mean (SE)",subjects with RRMS [2]; [5],0.59 (0.15) [41]
same,"Number of PBH from new T2 lesions, mean (SE)",subjects with RRMS [2]; [5],0.57 (0.16) [40]
same,"PBH from GdE lesions, RR (risk ratio) laquinimod vs placebo",subjects with RRMS [2]; [5],0.45
same,"PBH from active lesions, RR (risk ratio) laquinimod vs placebo",subjects with RRMS [2]; [5],0.42
same,"PBH from new T2 lesions, RR (risk ratio) laquinimod vs placebo",subjects with RRMS [2]; [5],0.48
same,"Number of PBH from GdE lesions, adjusted mean (SE)",subjects with RRMS [2]; [6],1.0 (0.20) [41]
same,"Number of PBH from active lesions, adjusted mean (SE)",subjects with RRMS [2]; [6],1.20 (0.19) [55]
same,"Number of PBH from new T2 lesions, mean (SE)",subjects with RRMS [2]; [6],0.87 (0.17) [51]
same,"PBH from GdE lesions, RR (risk ratio) laquinimod vs placebo",subjects with RRMS [2]; [6],0.45
same,"PBH from active lesions, RR (risk ratio) laquinimod vs placebo",subjects with RRMS [2]; [6],0.51
same,"PBH from new T2 lesions, RR (risk ratio) laquinimod vs placebo",subjects with RRMS [2]; [6],0.52
same,"Number of PBH from GdE lesions, adjusted mean (SE)",subjects with RRMS [2]; [7],0.6 (0.17) [26]
same,"PBH from GdE lesions, RR (risk ratio) laquinimod vs placebo",subjects with RRMS [2]; [7],0.65
same,"Number of PBH from GdE lesions, adjusted mean (SE)",subjects with RRMS [2]; [8],0.6 (0.24) [14]
same,"Number of PBH from active lesions, adjusted mean (SE)",subjects with RRMS [2]; [8],0.47 (0.14) [29]
same,"Number of PBH from new T2 lesions, mean (SE)",subjects with RRMS [2]; [8],0.43 (0.14) [28]
same,"PBH from GdE lesions, RR (risk ratio) laquinimod vs placebo",subjects with RRMS [2]; [8],0.55
same,"PBH from active lesions, RR (risk ratio) laquinimod vs placebo",subjects with RRMS [2]; [8],0.45
same,"PBH from new T2 lesions, RR (risk ratio) laquinimod vs placebo",subjects with RRMS [2]; [8],0.50
same,"Number of PBH from GdE lesions, adjusted mean (SE)",subjects with RRMS [2]; [9],0.7 (0.19) [32]
same,"Number of PBH from active lesions, adjusted mean (SE)",subjects with RRMS [2]; [9],0.95 (0.18) [52]
same,"Number of PBH from new T2 lesions, mean (SE)",subjects with RRMS [2]; [9],0.87 (0.17) [51]
same,"PBH from GdE lesions, RR (risk ratio) laquinimod vs placebo",subjects with RRMS [2]; [9],0.44
same,"PBH from active lesions, RR (risk ratio) laquinimod vs placebo",subjects with RRMS [2]; [9],0.50
same,"PBH from new T2 lesions, RR (risk ratio) laquinimod vs placebo",subjects with RRMS [2]; [9],0.52
same,"Number of PBH evolved from GdE lesions present at baseline, placebo vs laquinimod",subjects with RRMS [2]; at 12 and 24 months,no difference
